Test results from patent US20070148184A1, “Survivin-derived peptides and use thereof” (priority 2003, published 2007).
Where two headings read alike, the source gives them in different places. No end group written: not given here.

Assays:
[1] = system: peptide epitope-specific interferon-γ releasing effector cells; assay: IFN-γ ELISPOT, Example 4 (PBL or TIL from cancer patients); type: cell-based, human
Protocol: To extend the sensitivity of the ELISPOT assay, PBL were stimulated once in vitro prior to analysis. At day 0, PBL or crushed lymph nodes were thawed and plated as 2×10^6 cells in 2 ml/well in 24-well plates (Nunc, Roskilde, Denmark) in x-vivo medium (Bio Whittaker, Walkersville, Md.), […] heat-inactivated human serum, and 2 mM of L-glutamine in the presence of 10 μM of peptide. Two days later 20 IU/ml recombinant interleukin-2 (IL-2) (Chiron, Ratingen, Germany) was added to the cultures. The cultured cells were tested for reactivity in the ELISPOT on day 10.
The ELISPOT assay was used to quantify peptide epitope-specific interferon-γ releasing effector cells as previously described (16). Briefly, nitrocellulose bottomed 96-well plates (MultiScreen MAIP N45, Millipore, Hedehusene, Denmark) were coated with anti-IFN-γ antibody (1-D1K, Mabtech, Nacka, Sweden). The wells were washed, blocked by X-vivo medium, and the cells were added in duplicates at different cell concentrations. The peptides were then added to each well and the plates were incubated overnight. The following day, media was discarded and the wells were washed prior to addition of biotinylated secondary antibody (7-B6-1-Biotin, Mabtech). The plates were incubated for 2 hours, washed, and avidin-alkaline phosphatase conjugate (Calbiochem, Life Technologies, Inc. San Diego, Calif., USA) was added to each well. The plates were incubated at room temperature for one hour, washed, and the enzyme substrate NBT/BCIP (DakoCytomation Norden A/S, Glostrup, Denmark) was added to each well and incubated at RT for 5-10 min. Upon the emergence of dark purple spots, the reaction was terminated by washing with tap-water. The spots were counted using the ImmunoSpot® Series 2.0 Analyzer (CTL Analyzers, LLC, Cleveland, US) and the peptide specific CTL frequency could be calculated from the numbers of spot-forming cells. All assays were performed in duplicates for each peptide antigen.

[2] = biological target: HLA-A3 (Homo sapiens, UniProt P04439); assay: Assembly assay, HLA-A3; type: binding; details: for EC50: Table 4, HLA-A3, read-out: C50
Protocol: (§1) The binding affinity of synthetic peptides (Invitrogen, Carlsbad, Calif., USA) to HLA-A1, -A2, A3, or -A11 molecules metabolically labeled with [^35S]-methionine was measured in the assembly assay, as described previously (12). The assay is based on peptide-mediated stabilization of empty HLA molecules released upon cell lysis, from the TAP-deficient cell lines. Stably folded HLA-molecules were immune-precipitated using the HLA class I-specific, conformation-dependent mAb W6/32, and separated by isoelectric focusing (IEF) gel electrophoresis. MHC heavy chain bands were quantified using the ImageGauge Phosphorimager program (FUJI photo film Co., Carrollton, Tex., USA). The intensity of the band is proportional to the amount of peptide-bound class I MHC complex recovered during the assay. Subsequently, the extent of stabilization of the HLA-molecule is directly related to the binding affinity of the added peptide. The peptide concentration used to analyze the recovery of the HLA-molecules was 40, 4, 0.4, 0.04 μM for HLA-A1 and HLA-A11, and 100, 10, 1, 0.1, 0.01 μM for HLA-A2 and HLA-A3. The C50 value was subsequently calculated for each peptide as the peptide concentration sufficient for half maximal stabilization.

[3] = biological target: T1, HLA-A1 (Homo sapiens, UniProt P04439, A114D/A174V/A182V/D101N/D185E/E176A/E190D/L180R/Q94H/R68K/S129P/T187R/V100A/V91M/W191G); assay: Assembly assay, HLA-A1; type: binding; details: for EC50: Table 4, HLA-A1, read-out: C50
T1 construct: empty HLA molecules released upon cell lysis, from the TAP-deficient cell lines; endogenous in cells; host or cells: BM36.1 (TAP-defective cell line expressing HLA-A*0101 and HLA-B*3501)
Protocol: as §1

[4] = biological target: HLA-A11 (Homo sapiens, UniProt P04439, A114D/D185E/E176A/F33Y/L180Q/S129P/T187R); assay: Assembly assay, HLA-A11; type: binding
Protocol: as §1

[5] = biological target: HLA-B7 (Homo sapiens, UniProt P01889); assay: Assembly assay, HLA-B7; type: binding
Protocol: as §1
Binding of survivin derived peptides to HLA-B7 The amino acid sequence of the survivin protein was screened for peptides of nine to ten amino acids, with anchor residues according to the peptide binding motif of HLA-B7. Five peptides were selected and analyzed for their ability to stabilize HLA-B7 in the assembly assay. C50 values were estimated for each peptide as the peptide concentration needed for half maximal stabilization of HLA-B7 (table 4).

[6] = HLA-A3, nine samples from melanoma patients (five PBL and four TIL)

Molecule: CC[C@H](C)[C@H](NC(=O)[C@@H](N)CCCNC(=N)N)C(=O)N[C@@H](CO)C(=O)N[C@H](C(=O)N[C@@H](Cc1ccccc1)C(=O)N[C@@H](CCCCN)C(=O)N[C@@H](CC(N)=O)C(=O)N[C@@H](Cc1c[nH]c2ccccc12)C(=O)N1CCC[C@H]1C(=O)N[C@@H](CCCCN)C(=O)O)[C@@H](C)O [Sur18K10]
- ELISPOT response [1, 6]: CTL reactivity was detected
- responding patients ([1]; HLA-A3, twenty-seven melanoma patients analyzed): six
- binding to HLA-A3, in words [2]: high affinity
- EC50 [2]: 0.02 µM

Molecule: CC[C@H](C)[C@H](NC(=O)[C@H](Cc1ccccc1)NC(=O)CNC(=O)[C@H](C)NC(=O)[C@H](CCC(=O)O)NC(=O)[C@H](C)NC(=O)[C@@H](N)CCSC)C(=O)N[C@@H](Cc1c[nH]cn1)C(=O)N[C@@H](Cc1ccc(O)cc1)C(=O)O [Sur38Y9]
- EC50 [3]: 0.8 µM

Molecule: CC(C)C[C@H](NC(=O)[C@H](CC(=O)O)NC(=O)[C@@H]1CCCN1C(=O)[C@H](CCC(=O)O)NC(=O)[C@H](CC(N)=O)NC(=O)[C@H](CCC(=O)O)NC(=O)[C@@H](NC(=O)[C@@H]1CCCN1)[C@@H](C)O)C(=O)N[C@@H](C)C(=O)N[C@@H](Cc1ccc(O)cc1)C(=O)O [Sur47Y10]
- EC50 [3]: 0.4 µM

Molecule: CC(C)C[C@H](NC(=O)[C@@H](N)CC(C)C)C(=O)N[C@@H](CCC(N)=O)C(=O)N[C@@H](CS)C(=O)N[C@@H](Cc1ccccc1)C(=O)N[C@@H](Cc1ccccc1)C(=O)N[C@@H](CS)C(=O)N[C@@H](Cc1ccccc1)C(=O)N[C@@H](CCCCN)C(=O)O [Sur54L2]
- ELISPOT response [1, 6]: No responses were detected
- binding to HLA-A3, in words [2]: high affinity

Molecule: CC(C)C[C@H](NC(=O)[C@H](CCC(=O)O)NC(=O)[C@H](CCC(=O)O)NC(=O)[C@H](Cc1ccccc1)NC(=O)[C@@H](N)CCC(N)=O)C(=O)N[C@H](C(=O)N[C@@H](CC(C)C)C(=O)NCC(=O)N[C@@H](CCC(=O)O)C(=O)N[C@@H](Cc1ccccc1)C(=O)O)[C@@H](C)O [Sur92-101]
- ELISPOT response ([1]; HLA-A1, Mel.A1-2): showed responses
- ELISPOT response ([1]; HLA-A1, Mel.A1-3, PBL): T-cell response
- binding to HLA-A1, in words [3]: bound with almost similar high affinity as a known positive control epitope
- EC50 [3]: 2 µM

Molecule: CC(C)C[C@H](NC(=O)[C@H](CCC(=O)O)NC(=O)[C@H](CCC(=O)O)NC(=O)[C@H](CO)NC(=O)[C@@H](N)CCC(N)=O)C(=O)N[C@H](C(=O)N[C@@H](CC(C)C)C(=O)NCC(=O)N[C@@H](CCC(=O)O)C(=O)N[C@@H](Cc1ccccc1)C(=O)O)[C@@H](C)O [Sur92S2]
- EC50 [3]: 100 µM

Molecule: CC(C)C[C@H](NC(=O)[C@H](CCC(=O)O)NC(=O)[C@H](CCC(=O)O)NC(=O)[C@@H](NC(=O)[C@@H](N)CCC(N)=O)[C@@H](C)O)C(=O)N[C@H](C(=O)N[C@@H](CC(C)C)C(=O)NCC(=O)N[C@@H](CCC(=O)O)C(=O)N[C@@H](Cc1ccccc1)C(=O)O)[C@@H](C)O [Sur92T2]
- EC50 [3]: 2 µM

Molecule: CC(C)C[C@H](NC(=O)[C@H](CCC(=O)O)NC(=O)[C@H](CCC(=O)O)NC(=O)[C@@H](N)Cc1ccccc1)C(=O)N[C@H](C(=O)N[C@@H](CC(C)C)C(=O)NCC(=O)N[C@@H](CCC(=O)O)C(=O)N[C@@H](Cc1ccccc1)C(=O)O)[C@@H](C)O [Sur93-101]
- ELISPOT response ([1]; HLA-A1, ten melanoma patients, data not shown): no peptide-specific responses were detected
- binding to HLA-A1, in words [3]: low binding affinity
- EC50 [3]: > 100 µM

Molecule: CC(C)C[C@H](NC(=O)[C@H](CCC(=O)O)NC(=O)[C@H](CO)NC(=O)[C@@H](N)Cc1ccccc1)C(=O)N[C@H](C(=O)N[C@@H](CC(C)C)C(=O)NCC(=O)N[C@@H](CCC(=O)O)C(=O)N[C@@H](Cc1ccccc1)C(=O)O)[C@@H](C)O [Sur93S2]
- EC50 [3]: 30 µM

Molecule: CC(C)C[C@H](NC(=O)[C@H](CCC(=O)O)NC(=O)[C@@H](NC(=O)[C@@H](N)Cc1ccccc1)[C@@H](C)O)C(=O)N[C@H](C(=O)N[C@@H](CC(C)C)C(=O)NCC(=O)N[C@@H](CCC(=O)O)C(=O)N[C@@H](Cc1ccccc1)C(=O)O)[C@@H](C)O [Sur93T2]
- ELISPOT response ([1]; HLA-A1, Mel.A1-2): showed responses
- ELISPOT response ([1]; HLA-A1, Mel.A1-3, PBL): T-cell response
- ELISPOT response ([1]; HLA-A1, Mel.A1-4/PBL): responses were observed
- binding to HLA-A1, in words [3]: bound with high affinity
- EC50 [3]: 1 µM

Molecule: CC(C)C[C@H](NC(=O)[C@@H](N)CC(=O)O)C(=O)N[C@@H](C)C(=O)N[C@@H](CCC(N)=O)C(=O)N[C@@H](CS)C(=O)N[C@@H](Cc1ccccc1)C(=O)N[C@@H](Cc1ccccc1)C(=O)N[C@@H](CS)C(=O)N[C@@H](Cc1ccccc1)C(=O)N[C@@H](CCCCN)C(=O)O [Sur 53-62]
- ELISPOT response [1, 6]: no immune responses
- ELISPOT response ([1]; HLA-A11, Mel.A11-1, five blood samples over two years, data not shown): strong immune response
- ELISPOT response ([1]; HLA-A11, PBL from Mel.A11-1 and Mel.A11-2): detect responses
- ELISPOT response ([1]; HLA-A11, TIL from tumor infiltrated lymph node, Mel.A11-2): able to detect Sur53-62 specific T-cells
- binding to HLA-A3, in words [2]: bound weakly
- binding to HLA-A11, in words [4]: high affinity

Molecule: CC(C)C[C@H](N)C(=O)N[C@@H](C)C(=O)N[C@@H](CCC(N)=O)C(=O)N[C@@H](CS)C(=O)N[C@@H](Cc1ccccc1)C(=O)N[C@@H](Cc1ccccc1)C(=O)N[C@@H](CS)C(=O)N[C@@H](Cc1ccccc1)C(=O)N[C@@H](CCCCN)C(=O)O [Sur 54-62]
- binding to HLA-A11, in words [4]: high affinity

Molecule: CC(C)C[C@H](NC(=O)[C@H](Cc1ccccc1)NC(=O)[C@H](CCC(=O)O)NC(=O)CNC(=O)[C@H](CC(C)C)NC(=O)[C@@H](NC(=O)[C@H](CC(C)C)NC(=O)[C@@H](N)CCC(=O)O)[C@@H](C)O)C(=O)N[C@@H](CCCCN)C(=O)O [Sur 95-103]
- ELISPOT response [1, 6]: no immune responses
- binding to HLA-A3, in words [2]: bound weakly
- EC50 [2]: > 100 µM

Molecule: CC[C@H](C)[C@H](NC(=O)[C@@H](N)CCCCN)C(=O)N[C@@H](C)C(=O)N[C@@H](CCCCN)C(=O)N[C@@H](CCC(=O)O)C(=O)N[C@H](C(=O)N[C@@H](CC(N)=O)C(=O)N[C@@H](CC(N)=O)C(=O)N[C@@H](CCCCN)C(=O)O)[C@@H](C)O [Sur 112-120]
- ELISPOT response [1, 6]: no immune responses
- binding to HLA-A3, in words [2]: high affinity
- EC50 [2]: 2 µM
- binding to HLA-A11, in words [4]: high affinity
- EC50 ([4]; Table 4, HLA-A11, read-out: C50): 1 µM

Molecule: CPTENEPDL [Sur46-54]
- C50 (half maximal stabilization of HLA-B7) ([5]; Example 4): did not bind
- EC50 ([5]; Table 4, HLA-B7, read-out: C50): > 100 µM

Molecule: ENEPDLAQCF [Sur49-58]
- binding to HLA-A1, in words [3]: non-binding

Molecule: EPDLAQCFF [Sur51-59]
- C50 (half maximal stabilization of HLA-B7) ([5]; Example 4): did not bind
- EC50 ([5]; Table 4, HLA-B7, read-out: C50): > 100 µM

Molecule: LPPAWQPFL [Sur6-14]
- EC50 ([5]; Example 4, read-out: C50 (half maximal stabilization of HLA-B7)): > 100 µM
- EC50 ([5]; Table 4, HLA-B7, read-out: C50): > 100 µM

Molecule: QPRAPIRPI [C6, reference compound]
- EC50 [5]: 0.1 µM

Molecule: RPPIFIRRL [C7, reference compound]
- EC50 [5]: 0.5 µM
